The values below come from PMC9106035, “Synthesis, X-ray Structure and Biological Studies of New Self-Assembled Cu(II) Complexes Derived from s-Triazine Schiff Base Ligand” (Molecules, 2022).

As usually defined, the MIC is the smallest concentration in the dilution series that meets the test's criterion for growth inhibition. Read a high MIC as a need for much substance.

Structures are written as SMILES.

The test relates to C. albicans (RCMB 005003(1) ATCC 10231). In words: Minimum Inhibitory Concentration (MIC). It counts as cell-based. On the procedure: Method S2: Antimi crobial studies a) Tested pathogenic microbes
The antibacterial a ctivity of the studied ligands and their Cu(II) complexes were evaluated against two Gram positive bacteria ((S. aureus (ATCC 25923) and B. […]
0.5). In case of fungi A. fumigatus (RCMB 002008) and C. albicans (RCMB 005003(1) ATCC 10231), the used medium in antagonistic activity against tested fungi is Potato Dextrose Agar, where Fluconazole was used standard antifungal agent. […]
c) Minimum Inhibitory Concentration (MIC)
Different dilutions of the compounds are inoculat ed with tested pathogenic microbes.
After incubation period of 96 well microplate, the results are meas ured using microplate reader. To determine at what level the MIC endpoint is established; subculture of test samples at different concentrati ons occurred in nutrient agar plates.

As for `CC(=NNc1nc(N2CCOCC2)nc(N2CCOCC2)n1)c1ccccc1[O-].CC(=O)[O-].[Cu+2]` [Complex 2, [Cu(DMOT)(CH3COO)]], the MIC amounted to 5000 µg/mL.
